Assays:
Assay type in all cases: in vivo
[1] = peroral toxicity to mammals (rat); settings: in vivo, po, dose required to achieve mortality rate of 50 percent, read-out: A.O. RAT LD50
Procedure: (§1) Certain of these compositions were also evaluated to determine their peroral toxicity to mammals. The animal selected for this experiment was the rat. The test results obtained are expressed in terms of the number of milligrams of compositions per kilogram of weight of the animal required to achieve a mortality rate of 50 percent (LD50).

[2] = tested on: root-knot nematode, Meloidogyne incognita var. acrita; test: Nematocide Test; set-up: key: 1: severe galling, equal to untreated plants; 2: moderate galling; 3: light galling; 4: very light galling; 5: no galling, perfect control; settings: 3.33 m.g. of test compound per jar; cucumber, approximately 3 weeks
Procedure: The test organism used was the infective migratory larvae of the root-knot nematode, Meloidogyne incognita var. acrita, reared in the greenhouse on roots of cucumber plants. Infected plants were removed from the culture, and the roots are chopped very finely. A small amount of this inoculum was added to a pint jar containing approximately 180 cc. of soil. The jars were capped and incubated for one week at room temperature. During this period eggs of the nematode were hatched, and the larval forms migrated into the soil.
Ten ml. of the test formulation were added to each of the two jars for each dosage tested. Following the addition of chemical, the jars were capped, and the contents thoroughly mixed on a ball mill for 5 minutes.
The test compounds were formulated by a standard procedure of solution in acetone addition of an emulsifier, and dilution with water. Primary screening tests were conducted at 3.33 m.g. of the test compound per jar.
The jars were left capped at room temperature for a period of 48 hours, and the contents then transferred to 3 inch pots. Subsequently, the pots were seeded to cucumber as an indicator crop and placed in the greenhouse where they were cared for in the normal fashion for approximately 3 weeks.
The cucumber plants were then taken from the pots, the soil removed from the roots, and the amount of galling visually rated.
In the test for activity against nematodes activity was rated as follows: […]

rat = test: peroral toxicity to mammals (rat); settings: dose required to achieve mortality rate of 50 percent
Procedure: as §1

| Compound | LD50 [1] [mg/kg] | NEMATODES activity rating (galling) [2] | A.O. RAT LD50 (rat) [mg/kg] |
| --- | --- | --- | --- |
| CC(C)C(=O)C(C)(C)SN(C)C(=O)ON=CC(C)(C)[N+](=O)[O-] [2-Nitro-2-methylpropionaldehyde O-[N-methyl-N-(2,4-dimethyl-3-oxo-2-pentanesulfenyl)carbamoyl]oxime] | 12 |  |  |
| CN(SC(C)(C)C(=O)c1ccccc1)C(=O)ON=C1SC(C)(C)C(=O)N1C [2-[[O-[N-methyl-N-(2-benzoyl-2-propanesulfenyl)carbamoyl]oximino]]-3,5,5-trimethylthiazolidin-4-one] |  | 3 |  |
| 1-(2-Cyanoethylthio)acetaldehyde 0-[N-methyl-N-(2,4-dimethyl-3-oxo-2-pentanethiosulfenyl)carbamoyl]oxime |  | 5 |  |
| CC(=NOC(=O)N(C)SC(C)(C)C(=O)C(C)C)SC(C)C [1Isopropylthioacetaldehyde O-[N-methyl-N-(2,4-dimethyl-3-oxo-2-pentanesulfenyl)carbamoyl]oxime] | 37 | 3 |  |
| CSC(C)(C)C=NOC(=O)N(C)SC(C)(C)C(=O)C(C)C [2-Methylthio-2-methylpropionaldehyde O-[N-methyl-N-(2,4-dimethyl-3-oxo-2-pentanesulfenyl)carbamoyl]oxmine] |  | 3 |  |
| CSC(C)=NOC(=O)N(C)SC(C)(C)C(=O)C(C)C [1-Methylthioacetaldehyde O-[N-methyl-N-(2,4-dimethyl-3-oxo-2-pentanesulfenyl)carbamoyl]oxime] | 134 | 1 |  |
| CC(C)C(=O)C(C)(C)SN(C)C(=O)ON=C1CSCCS1 [2-[[O-[N-methyl-N-(2,4-dimethyl-3-oxo-2-pentanesulfenyl)carbamoyl]oximino]]-1,4-dithiane] |  | 3 |  |
| 4-[[0-[N-Methyl-N-(2,4-dimethyl-3-oxo-2-pentanethiosulfenyl)carbamoyl]oximino]]-5-methyl-1,3-oxathiolane |  | 3 | 8 |
| CSC(C)=NOC(=O)N(C)SSC(C)(C)C(=O)C(C)C [1-Methylthioacetaldehyde 0-[N-methyl-N-(2,4-dimethyl-3-oxo-2-pentanethiosulfenyl)carbamoyl]oxime] | 226 | 3 |  |
| CC(C)C(=O)C(C)(C)SN(C)C(=O)ON=C1SCOC1C (centres unmarked) [4-[[O-[N-methyl-N-(2,4-dimethyl-3-oxo-2-pentanesulfenyl)carbamoyl]oximino]]-5-methyl-1,3-oxathiolane] | 16 |  |  |
| CC(C)C(=O)C(C)(C)SN(C)C(=O)Oc1cccc2c1OC(C)(C)C2 [7-[N-methyl-N-(2,4-dimethyl-3-oxo-2-pentanesulfenyl)carbamoyloxy]-2,2-dimethyl-2,3-dihydrobenzofuran] | 31 |  |  |
| CC(=NOC(=O)N(C)SSC(C)(C)C(=O)C(C)C)SC(C)C [1-Isopropylthioacetaldehyde 0-[N-methyl-N-(2,4-dimethyl-3-oxo-2-pentanethiosulfenyl)carbamoyl]oxime] | 42 | 4 |  |
| CSC(C)=NOC(=O)N(C)SSC(C)(C)C(=O)c1ccccc1 [1-Methylthioacetaldehyde O-[N-methyl-N-(2-benzoyl-2-propanethiosulfenyl)carbamoyl]oxime] | 226 |  |  |
| CC(C)C(=O)C(C)(C)SN(C)C(=O)ON=C1SC(C)(C)C(=O)N1C [2-[O-[N-methyl-(2,4-dimethyl-3-oxo-2-pentanesulfenyl)carbamoyl]oximino]-3,5,5-trimethylthiazolidin-4-one] | 226 |  |  |
| CC(C)C(=O)C(C)(C)SN(C)C(=O)ON=C(C#N)c1ccccc1 [α-Cyanobenzaldehyde 0-[N-methyl-N-(2,4-dimethyl-3-oxo-2-pentanesulfenyl)carbamoyl]oxime] |  | 3 |  |

Reference: patent US4179514A, “Ketoalkanesulfenyl and ketoalkanethiosulfenyl carbamates” (priority 1978, dated 1979)
